# Test results from patent US20080214568A1, “Pharmaceutical Combination Comprising an Antifungal Agent and an Active Substance Selected From Carveol, Eugenol, Thymol, Borneol, Carvacrol, and Alpha- and Beta-Ionones” (ADVANCED SCIENTIFIC DEVELOPMENTS, priority 2005, published 2008).
# Where two headings read alike, the source gives them in different places.
# Columns and labels:
# Candida albicans = assay: Static tests: minimal inhibitory (MIC) and minimal fungicidal concentration (MFC) on Candida albicans strains; type: cell-based
# Description: In Vitro Tests: Determination of Minimal Fungicidal Concentration (MFC) on Different Strains of Candida albicans
# The experiment was carried out with several strains of Candida albicans having different susceptibilities isolated in the hospital environment from the mouth, vagina and digestive tract. […] An antifungal pharmaceutical composition was prepared by mixing fluconazole at different concentrations with carvacrol at a sub-inhibitory concentration of 0.3 g per liter of solution or excipient. This pharmaceutical composition according to the invention was named FLUC-P for potentiated fluconazole. In each case, antifungal activity was determined either with fluconazole alone, or with carvacrol alone, or with the composition of the invention.
# Table 1 gives the results of static tests to determine the minimal fungicidal concentration (MFC) in μg/ml.
# (§1) The experiment was carried out with several strains of Candida albicans having different susceptibilities isolated in the hospital environment. The antifungal agent used was voriconazole, an azole derivative and one of the most recent antifungals on the market. An antifungal pharmaceutical composition according to the invention was prepared by mixing voriconazole at different concentrations with carvacrol at a sub-inhibitory concentration of 0.3 g per liter of solution or excipient. This pharmaceutical composition according to the invention was named Vorico-P for potentiated voriconazole. In each case, antifungal activity was determined either with voriconazole alone, or with carvacrol alone, or with the composition of the invention.
# Table 2 gives the results of static tests to determine the minimal inhibitory concentration (MIC) and the minimal fungicidal concentration (MFC) in μg/ml.
# as §1, with “caspofungin, from the echinocandin family, which is” for “voriconazole, an azole derivative and”, “newest” for “most recent”, “caspofungin” for “voriconazole”, “Caspo-P” for “Vorico-P”, “caspofungin.” for “voriconazole.”
# Table 3 gives the results of static tests to determine the minimal inhibitory concentration (MIC) and the minimal fungicidal concentration (MFC) in μg/ml.
# The experiment was carried out with several strains of Candida albicans having different susceptibilities isolated in the hospital environment. The antifungal agent used was 5-fluorocytosine, from the pyrimidine group, which is one of the oldest antifungal agents. An antifungal pharmaceutical composition according to the invention was prepared by mixing 5-fluorocytosine at different concentrations with eugenol at a sub-inhibitory concentration of 0.5 g per liter of solution or excipient. This pharmaceutical composition according to the invention was named Fluoro-P for potentiated 5-fluorocytosine. In each case, antifungal activity was determined either with 5-fluorocytosine alone, or with eugenol alone, or with the composition of the invention.
# Table 4 gives the results of static tests to determine the minimal inhibitory concentration (MIC) and the minimal fungicidal concentration (MFC) in μg/ml.
# Aspergillus niger = assay: Static tests: MIC and MFC on Aspergillus niger strains; type: cell-based
# Description: The experiment was carried out with several strains of Aspergillus niger which were not susceptible to fluconazole. The antifungal agent used was fluconazole, an azole derivative and one of the most widely used antifungals. […] Aspergillosis, caused by microorganisms from the family Aspergillus sp, represents the most common and most difficult-to-treat infection. An antifungal pharmaceutical composition according to the invention was prepared by mixing fluconazole at different concentrations with carvacrol at a sub-inhibitory concentration of 0.25 g per liter of solution or excipient. This pharmaceutical composition according to the invention was named Fluc-P for potentiated fluconazole. In each case, antifungal activity was determined either with fluconazole alone, or with carvacrol alone, or with the composition of the invention.
# Table 5 gives the results of static tests to determine the minimal inhibitory concentration (MIC) and the minimal fungicidal concentration (MFC) in μg/ml.
# [1] = tested on: Candida albicans strain with moderate resistance to fluconazole; type: in vivo, mice; conditions: fluconazole alone 4 mg/kg/day, carvacrol alone 30 mg/kg/day; for survival: mice, gavage from 24 h post-infection, seven days, composition fluconazole 2 mg/kg + carvacrol 30 mg/kg, FIG. 2; for Candida albicans loads in kidney, lung and bone marrow: organs of mice which died during the experiment
# From the text: FIG. 2 presents the results of in vivo tests in a systemic candidiasis model in experimentally infected mice either untreated, or treated with fluconazole alone, treated with carvacrol alone, or treated with a pharmaceutical composition according to the invention comprising fluconazole and carvacrol.
# Groups of 15 mice were experimentally infected by intravenous injection of 10,000,000 cells (colony-forming units) of a Candida albicans strain with moderate resistance to fluconazole.
# The first group was composed of control mice which were infected and untreated.
# The second group was composed of infected mice treated by gavage, 24 h post-infection, with fluconazole alone at a dose of 4 mg/kg of body weight/day.
# The third group was composed of infected mice treated by gavage, 24 h post-infection, with carvacrol alone at a dose of 30 mg/kg of body weight/day.
# The fourth group was composed of infected mice treated by gavage, 24 h post-infection, with fluconazole 2 mg/kg of body weight and with carvacrol 30 mg/kg of body weight.
# The duration of treatment was seven days for surviving animals. The survival rate was measured over time. […] All the other mice died between the second and seventh day post-infection.
compound,measurement,setting,value
Nc1nc(=O)[nH]cc1F [5-fluorocytosine],MIC,"Candida albicans; Candida albicans, Example 4, resistant strain, 5-fluorocytosine alone",25 µg/mL
same,MIC,"Candida albicans; Candida albicans, Example 4, susceptible strain, 5-fluorocytosine alone",2.5 µg/mL
same,5-fluorocytosine concentration producing fungicidal activity versus fungistatic concentration of 5-fluorocytosine alone,"Candida albicans; resistant strains, with eugenol 0.5 mg/ml",five times lower
"Cc1ccc(C(C)C)cc1O [Carvacrol, carvacrol]",MFC,Aspergillus niger; Aspergillus niger,500 µg/mL
same,MFC,Candida albicans; Candida albicans,1000 µg/mL
same,MFC,"Candida albicans; Example 1, highly resistant strain, exponential growth phase, substance alone",1000 µg/mL
same,MFC,"Candida albicans; Example 1, moderately resistant strain, exponential growth phase, substance alone",1000 µg/mL
same,MFC,"Candida albicans; Example 2, resistant strain, carvacrol alone",1000 µg/mL
same,MFC,"Candida albicans; Example 2, susceptible strain, carvacrol alone",1000 µg/mL
same,MFC,"Candida albicans; Example 3, resistant strain, carvacrol alone",1000 µg/mL
same,MFC,"Candida albicans; Example 3, susceptible strain, carvacrol alone",1000 µg/mL
same,survival,[1],died during the experiment
same,"Candida albicans loads in kidney, lung and bone marrow",[1],high loads
"CC[C@H](C)C[C@H](C)CCCCCCCCC(=O)N[C@H]1C[C@@H](O)[C@@H](NCCN)NC(=O)[C@@H]2[C@@H](O)CCN2C(=O)[C@H]([C@H](O)CCN)NC(=O)[C@H]([C@H](O)[C@@H](O)c2ccc(O)cc2)NC(=O)[C@@H]2C[C@@H](O)CN2C(=O)[C@H]([C@@H](C)O)NC1=O [Caspofungin, caspofungin]",MIC,"Candida albicans; Candida albicans, Example 3, resistant strain, caspofungin alone",3 µg/mL
same,MIC,"Candida albicans; Candida albicans, Example 3, susceptible strain, caspofungin alone",< 0.05 µg/mL
same,caspofungin concentration producing fungicidal activity versus fungistatic concentration of caspofungin alone,Candida albicans; with carvacrol 0.3 mg/ml,at least six times lower
"C=CCc1ccc(O)c(OC)c1 [Eugenol, eugenol]",MFC,"Candida albicans; Candida albicans, Example 4, resistant strain, eugenol alone, read-out: MFC",2000 µg/mL
same,MFC,"Candida albicans; Candida albicans, Example 4, susceptible strain, eugenol alone, read-out: MFC",2000 µg/mL
"OC(Cn1cncn1)(Cn1cncn1)c1ccc(F)cc1F [Fluconazole, fluconazole]",MIC,"Aspergillus niger; Example 5, 12 different strains of Aspergillus niger, fluconazole alone",> 1000 µg/mL
same,MFC,"Candida albicans; Candida albicans, Example 1, highly resistant strain, exponential growth phase, substance alone, read-out: MFC",> 300 µg/mL
same,MFC,"Candida albicans; Candida albicans, Example 1, moderately resistant strain, exponential growth phase, substance alone, read-out: MFC",150 µg/mL
same,MFC,"Candida albicans; Candida albicans, Example 1, susceptible strain, exponential growth phase, substance alone, read-out: MFC",0.5 µg/mL
same,survival,[1],died during the experiment
same,"Candida albicans loads in kidney, lung and bone marrow",[1],high loads
"C[C@@H](c1ncncc1F)[C@](O)(Cn1cncn1)c1ccc(F)cc1F [Voriconazole, voriconazole]",MIC,"Candida albicans; Candida albicans, Example 2, resistant strain, voriconazole alone",10 µg/mL
same,MIC,"Candida albicans; Candida albicans, Example 2, susceptible strain, voriconazole alone",< 0.05 µg/mL
same,voriconazole concentration producing fungicidal activity versus fungistatic concentration of voriconazole alone,"Candida albicans; resistant strains, with carvacrol 0.3 mg/ml",at least ten times lower
